In ChEMBL document CHEMBL3045802, “Synthesis and in vitro antitumor activity of new quinoline, pyrimido[4,5-b]quinoline, [1,2,3]triazino[4,5-b]quinoline, and [1,2,4]triazolo[2,3:3,4]pyrimido[6,5-b]quinoline analogs” (2013):

How the values were obtained:
Format in all cases: functional
[1] = tested on: CCRF-CEM; test: Cytotoxicity against Homo sapiens (human) CCRF-CEM cells assessed as growth inhibition at 10 uM after 48 hr by coulter counter analysis; details: read-out: GI
[2] = Cytotoxicity against Homo sapiens (human) NCI-ADR-RES cells assessed as growth inhibition at 10 uM after 48 hr by coulter counter analysis; details: read-out: GI
[3] = tested on: SW-620; test: Cytotoxicity against Homo sapiens (human) SW620 cells assessed as growth inhibition at 10 uM after 48 hr by coulter counter analysis; details: SW-620, 48 h, read-out: GI
[4] = tested on: K562; test: Cytotoxicity against Homo sapiens (human) K562 cells assessed as growth inhibition at 10 uM after 48 hr by coulter counter analysis; details: K562, 48 h, read-out: GI
[5] = tested on: CAKI-1; test: Cytotoxicity against Homo sapiens (human) Caki1 cells assessed as growth inhibition at 10 uM after 48 hr by coulter counter analysis; details: CAKI-1, 48 h, read-out: GI
[6] = tested on: UO-31; test: Cytotoxicity against Homo sapiens (human) UO31 cells assessed as growth inhibition at 10 uM after 48 hr by coulter counter analysis; details: UO-31, 48 h, read-out: GI
[7] = tested on: NCI-H522; test: Cytotoxicity against Homo sapiens (human) NCI-H522 cells assessed as growth inhibition at 10 uM after 48 hr by coulter counter analysis; details: NCI-H522, 48 h, read-out: GI
[8] = tested on: HCT-116; test: Cytotoxicity against Homo sapiens (human) HCT116 cells assessed as growth inhibition at 10 uM after 48 hr by coulter counter analysis; details: HCT-116, 48 h, read-out: GI
[9] = tested on: Hs-578T; test: Cytotoxicity against Homo sapiens (human) Hs578T cells assessed as growth inhibition at 10 uM after 48 hr by coulter counter analysis; details: read-out: GI
[10] = tested on: OVCAR-4; test: Cytotoxicity against Homo sapiens (human) OVCAR4 cells assessed as growth inhibition at 10 uM after 48 hr by coulter counter analysis; details: OVCAR-4, 48 h, read-out: GI
[11] = tested on: NCI-H460; test: Cytotoxicity against Homo sapiens (human) NCI-H460 cells assessed as growth inhibition at 10 uM after 48 hr by coulter counter analysis; details: NCI-H460, 48 h, read-out: GI
[12] = tested on: UACC-62; test: Cytotoxicity against Homo sapiens (human) UACC62 cells assessed as growth inhibition at 10 uM after 48 hr by coulter counter analysis; details: UACC-62, 48 h, read-out: GI
[13] = tested on: MDA-MB-231; test: Cytotoxicity against Homo sapiens (human) MDA-MB-231 cells assessed as growth inhibition at 10 uM after 48 hr by coulter counter analysis; details: MDA-MB-231, 48 h, read-out: GI
[14] = tested on: UACC-257; test: Cytotoxicity against Homo sapiens (human) UACC257 cells assessed as growth inhibition at 10 uM after 48 hr by coulter counter analysis; details: UACC-257, 48 h, read-out: GI
[15] = tested on: SR; test: Cytotoxicity against Homo sapiens (human) SR cells assessed as growth inhibition at 10 uM after 48 hr by coulter counter analysis; details: read-out: GI
[16] = tested on: LOX IMVI; test: Cytotoxicity against Homo sapiens (human) LOXIMVI cells assessed as growth inhibition at 10 uM after 48 hr by coulter counter analysis; details: read-out: GI
[17] = tested on: Malme-3M; test: Cytotoxicity against Homo sapiens (human) MALME-3M cells assessed as growth inhibition at 10 uM after 48 hr by coulter counter analysis; details: read-out: GI
[18] = tested on: KM12; test: Cytotoxicity against Homo sapiens (human) KM12 cells assessed as growth inhibition at 10 uM after 48 hr by coulter counter analysis; details: KM12, 48 h, read-out: GI
[19] = tested on: OVCAR-8; test: Cytotoxicity against Homo sapiens (human) OVCAR8 cells assessed as growth inhibition at 10 uM after 48 hr by coulter counter analysis; details: OVCAR-8, 48 h, read-out: GI
[20] = tested on: RXF 393; test: Cytotoxicity against Homo sapiens (human) RXF393 cells assessed as growth inhibition at 10 uM after 48 hr by coulter counter analysis; details: RXF 393, 48 h, read-out: GI
[21] = tested on: SK-MEL-28; test: Cytotoxicity against Homo sapiens (human) SK-MEL-28 cells assessed as growth inhibition at 10 uM after 48 hr by coulter counter analysis; details: SK-MEL-28, 48 h, read-out: GI
[22] = tested on: HOP-62; test: Cytotoxicity against Homo sapiens (human) HOP62 cells assessed as growth inhibition at 10 uM after 48 hr by coulter counter analysis; details: HOP-62, 48 h, read-out: GI
[23] = tested on: A549; test: Cytotoxicity against Homo sapiens (human) A549 cells assessed as growth inhibition at 10 uM after 48 hr by coulter counter analysis; details: A549, 48 h, read-out: GI
[24] = tested on: SNB-19; test: Cytotoxicity against Homo sapiens (human) SNB19 cells assessed as growth inhibition at 10 uM after 48 hr by coulter counter analysis; details: SNB-19, 48 h, read-out: GI

O=c1[nH]c(-c2ccccc2)nc2c1C(c1ccc(Cl)cc1)C1=C(CCCC1)N2 (stereo unspecified)
inhibition of growth at 10 µM [1]: < 10%
inhibition of growth at 10 µM [2]: < 10%
inhibition of growth at 10 µM [3]: < 10%
inhibition of growth at 10 µM [4]: 11.2%
inhibition of growth at 10 µM [5]: < 10%
inhibition of growth at 10 µM [6]: 43.3%
inhibition of growth at 10 µM [7]: 20.2%
inhibition of growth at 10 µM [8]: < 10%
inhibition of growth at 10 µM [9]: < 10%
inhibition of growth at 10 µM [10]: < 10%
inhibition of growth at 10 µM [11]: < 10%
inhibition of growth at 10 µM [12]: < 10%
inhibition of growth at 10 µM [13]: < 10%
inhibition of growth at 10 µM [14]: < 10%
inhibition of growth at 10 µM [15]: < 10%
inhibition of growth at 10 µM [16]: 11.2%
inhibition of growth at 10 µM [17]: < 10%
inhibition of growth at 10 µM [18]: < 10%
inhibition of growth at 10 µM [19]: < 10%
inhibition of growth at 10 µM [20]: < 10%
inhibition of growth at 10 µM [21]: < 10%
inhibition of growth at 10 µM [22]: < 10%
inhibition of growth at 10 µM [23]: < 10%
inhibition of growth at 10 µM [24]: < 10%

COc1ccc(C2C3=C(CCCC3)Nc3nc(-c4ccccc4)[nH]c(=O)c32)cc1OC (stereo unspecified)
inhibition of growth at 10 µM [1]: < 10%
inhibition of growth at 10 µM [2]: < 10%
inhibition of growth at 10 µM [3]: < 10%
inhibition of growth at 10 µM [4]: < 10%
inhibition of growth at 10 µM [5]: 23.4%
inhibition of growth at 10 µM [6]: 48.6%
inhibition of growth at 10 µM [7]: 14.5%
inhibition of growth at 10 µM [8]: < 10%
inhibition of growth at 10 µM [9]: < 10%
inhibition of growth at 10 µM [10]: < 10%
inhibition of growth at 10 µM [11]: < 10%
inhibition of growth at 10 µM [12]: 14.4%
inhibition of growth at 10 µM [13]: < 10%
inhibition of growth at 10 µM [14]: < 10%
inhibition of growth at 10 µM [15]: < 10%
inhibition of growth at 10 µM [16]: < 10%
inhibition of growth at 10 µM [17]: < 10%
inhibition of growth at 10 µM [18]: < 10%
inhibition of growth at 10 µM [19]: < 10%
inhibition of growth at 10 µM [20]: 14.4%
inhibition of growth at 10 µM [21]: < 10%
inhibition of growth at 10 µM [22]: 15.7%
inhibition of growth at 10 µM [23]: < 10%
inhibition of growth at 10 µM [24]: 10.7%

COc1ccc(-c2nc3c(c(=O)[nH]2)C(c2ccc(OC)c(OC)c2)C2=C(CCCC2)N3)cc1OC (stereo unspecified)
inhibition of growth at 10 µM [1]: 11.7%
inhibition of growth at 10 µM [2]: < 10%
inhibition of growth at 10 µM [3]: < 10%
inhibition of growth at 10 µM [4]: < 10%
inhibition of growth at 10 µM [5]: 13.5%
inhibition of growth at 10 µM [6]: 66.3%
inhibition of growth at 10 µM [7]: 25.8%
inhibition of growth at 10 µM [8]: < 10%
inhibition of growth at 10 µM [9]: < 10%
inhibition of growth at 10 µM [10]: 10.8%
inhibition of growth at 10 µM [11]: < 10%
inhibition of growth at 10 µM [12]: < 10%
inhibition of growth at 10 µM [13]: < 10%
inhibition of growth at 10 µM [14]: < 10%
inhibition of growth at 10 µM [15]: 21.4%
inhibition of growth at 10 µM [16]: 21.1%
inhibition of growth at 10 µM [17]: < 10%
inhibition of growth at 10 µM [18]: < 10%
inhibition of growth at 10 µM [19]: 12.1%
inhibition of growth at 10 µM [20]: 10.3%
inhibition of growth at 10 µM [21]: < 10%
inhibition of growth at 10 µM [22]: 12.3%
inhibition of growth at 10 µM [23]: < 10%
inhibition of growth at 10 µM [24]: < 10%

Clc1ccc(C2C3=C(CCCC3)Nc3ncn4nc(-c5ccccc5)nc4c32)cc1 (stereo unspecified)
inhibition of growth at 10 µM [1]: < 10%
inhibition of growth at 10 µM [2]: < 10%
inhibition of growth at 10 µM [3]: < 10%
inhibition of growth at 10 µM [4]: < 10%
inhibition of growth at 10 µM [5]: 12.4%
inhibition of growth at 10 µM [6]: 40%
inhibition of growth at 10 µM [7]: 23.5%
inhibition of growth at 10 µM [8]: < 10%
inhibition of growth at 10 µM [9]: < 10%
inhibition of growth at 10 µM [10]: < 10%
inhibition of growth at 10 µM [11]: < 10%
inhibition of growth at 10 µM [12]: 13.4%
inhibition of growth at 10 µM [13]: 11.1%
inhibition of growth at 10 µM [14]: < 10%
inhibition of growth at 10 µM [15]: < 10%
inhibition of growth at 10 µM [16]: 15.1%
inhibition of growth at 10 µM [17]: < 10%
inhibition of growth at 10 µM [18]: < 10%
inhibition of growth at 10 µM [19]: < 10%
inhibition of growth at 10 µM [20]: < 10%
inhibition of growth at 10 µM [21]: < 10%
inhibition of growth at 10 µM [22]: 16%
inhibition of growth at 10 µM [23]: < 10%
inhibition of growth at 10 µM [24]: < 10%
